Source: patent US12109224B2, “USB1 directed regulation of miRNAs related hematopoietic differentiation and affected in multiple forms of leukemia” (The Regents of the University of Colorado, a body corporate, priority 2020, dated 2024)

How the values were obtained:
Assay type in all cases: cell-based, human
[1] = test system: USB1 mutant cells; assay: miRNA levels by qRT-PCR in USB1 mutant cells; settings: normalized to 5s rRNA; RG7834 (104) vs DMSO; FIG. 4A
[2] = test system: undifferentiated USB1 mutant cells; assay: 3′ end sequencing of miR-125a-5p in undifferentiated USB1 mutant cells; settings: RG7834 1 μM, FIG. 4B
Experimental: 3′ end library preparation and analysis: 3′ end libraries were prepared as previously described (23, 41). Briefly, 30 ng of DNA-free rRNA-depleted RNA was treated with Antarctic Phosphatase (NEB), and two RNA appendices containing a unique barcode were ligated to equal amount of the input RNA using T4 RNA Ligase I (NEB). Reactions were cleaned up using RNA clean & concentrator kit (Zymo Research) and cDNA was prepared using an RNA appendix-specific primer and Superscript III RT (Invitrogen). cDNA was used as a template for […] using a miRNA-specific reverse primer containing a barcode, a universal primer and Phusion HF DNA polymerase (NEB). RACE products were separated on a 1% Agarose TAE gel, 100-180 bp DNA fragments were excised and DNA was eluted. Illumina-compatible libraries were prepared by amplifying RACE product using Illumina primers, and sequenced on a HiSeq lane (Illumina) using the 2×150 kit. Libraries were demultiplexed and unique reads aligning to the exact miRNA sequence were quantified. miRNA 3′ ends were obtained from miRbase v22.

[3] = test system: USB1 mutant cells; assay: Colony forming culture (CFC) assay of definitive hematopoietic progenitors; settings: chemical inhibition of PAPD5; RG7834 0.5 μM vs DMSO; FIG. 4E
Experimental: (§1) Hematopoietic differentiation: Definitive hematopoietic differentiation from hESCs was performed as previously described (14). Briefly, hESCs were cultured on Matrigel (BD Bioscience) for 1 day to deplete MEFs. On Day 0, cells were dissociated with 0.05% trypsin (Gibco) for 1 min and incubated with serumfree media [SFD: IMDM supplemented with 25% Hams F12, 0.05% BSA, 1× B27 supplement (Gibco), 0.5× N2 supplement (Gibco), 2 mM L-glutamine (Gibco), 50 μg/ml ascorbic acid (Gibco), 4×10−4 M monothioglycerol (Millipore Sigma), and 150 μg/ml transferrin] supplemented with 10 ng/ml BMP4 on 6 well plates coated with a 5% poly(2-hydroxyethyl methacrylate) solution (Millipore Sigma). On Day 1, one additional volume of SFD was added, containing 10 ng/ml BMP4 and 5 ng/ml bFGF. On Day 2, media was changed to fresh SFD supplemented with 10 ng/ml BMP4, 5 ng/ml bFGF, 3 μM CHIR99021, and 6 μM SB-431542. On Day 3, media was changed to StemPro-34 media [SP-34: StemPro-34 supplemented with 2 mM L-glutamine (Gibco), 1 mM ascorbic acid (Gibco), 4×10−4M monothioglycerol, 150 μg/ml transferrin] supplemented with 15 ng/ml VEGF and 5 ng/ml bFGF. On Day 6, one additional volume of SP-34 supplemented with 15 ng/ml VEGF, 5 ng/ml bFGF, 20 ng/ml IL-6, 50 ng/ml IGF1, 10 ng/ml IL-11, 200 ng/ml SCF, and 4 IU EPO was added. […]

[4] = test system: USB1 c.531delA CD34+/CD45+ cells; assay: Flow cytometry of hematopoietic CD34+/CD45+ progenitor cells; settings: RG7834 0.5 μM; FIG. 10B
Experimental: as §1

[5] = test system: USB1 mutant cells; assay: Flow cytometry following neutrophil differentiation; settings: CD45+CD14-CD11b+CD16 cells; FIG. 4F
Experimental: Flow cytometry and Cell sorting: Flow cytometry analysis was performed using the BD LSR Fortessa and FACS sorting by BD FACS Aria II at the Department of Pathology & Immunology Flow Cytometry Core at Washington University in St. Louis. The antibodies were used as follows; KDR (clone 89106), CD235a-APC (clone HIR2), CD34-APC (clone 8G12), CD34-PE-Cy7 (clone 4H11), CD43-PE or -FITC (clone 1G10), CD73-PE (clone AD2), CD184-APC (clone 12G5), CD45-PE (clone HI30), CD14-PE Cy7 (clone MφP9), CD15-BV421 (W6D3), CD66b-FITC (clone G10F5). All antibodies were purchased from BD Biosciences, but CD15 and CD66b were obtained from BioLegend. For cell cycle analysis, Click-iT EdU Alexa Fluor 488 kit (Life Technologies) was used following manufacturer's instructions.

COCCCOc1cc2c(cc1OC)-c1cc(=O)c(C(=O)O)cn1[C@H](C(C)C)C2 [RG7834]
levels of miRNAs that were reduced in USB1 mutant cells [1]: rescued
non-adenylated form of miR-125a-5p [2]: increase
oligoadenylated miR-125a-5p [2]: decrease
colony-formation potential in USB1 mutants [3]: rescued
hematopoietic CD34+/CD45+ progenitor cells [4]: increase
neutrophil formation in USB1 mutant cells [5]: improved
